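Values below derive from 48-hour exposures of cells grown in 96-well plates, with endpoints linearly interpolated between the two concentrations bracketing the appropriate inhibition level. GI50 marks 50% less growth.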 Active and inactive are the calls of the source. No stated cut-off is given here; in the data, active = GI50 up to about 1.1 µM and inactive = higher.
Experiments:
Assay in all cases: NCI-60 cell line screen, 48 h
U-251 = tested on: U-251
OVCAR-5 = tested on: OVCAR-5
MDA-MB-231 = tested on: MDA-MB-231
SK-MEL-2 = tested on: SK-MEL-2
MOLT-4 = tested on: MOLT-4
Hs-578T = tested on: Hs-578T
MDA-MB-435 = tested on: MDA-MB-435
786-0 = tested on: 786-0
NCI-H460 = tested on: NCI-H460
HOP-92 = tested on: HOP-92
M14 = tested on: M14
UACC-62 = tested on: UACC-62
NCI/ADR-RES = tested on: NCI/ADR-RES
SK-OV-3 = tested on: SK-OV-3
HCT-15 = tested on: HCT-15
SNB-19 = tested on: SNB-19
MCF7 = tested on: MCF7
Malme-3M = tested on: Malme-3M
SF-268 = tested on: SF-268
HCC 2998 = tested on: HCC 2998

Measured: GI50

O=C1c2ccccc2-c2oc(=O)c3ccccc3c21
inactive: U-251 > 100 µM | OVCAR-5 > 100 µM | MDA-MB-231 > 100 µM | SK-MEL-2 > 100 µM | MOLT-4 > 100 µM | Hs-578T > 100 µM | MDA-MB-435 > 100 µM | 786-0 > 100 µM | NCI-H460 > 100 µM | HOP-92 > 100 µM | M14 > 100 µM | UACC-62 > 100 µM | NCI/ADR-RES > 100 µM | SK-OV-3 > 100 µM | SNB-19 > 100 µM | MCF7 > 100 µM
> 100 µM: HCT-15

CC(C)(CN)SCc1ccccc1
inactive: U-251 > 100 µM | Malme-3M > 100 µM | OVCAR-5 > 100 µM | MDA-MB-231 > 100 µM | SK-MEL-2 > 100 µM | MOLT-4 > 100 µM | Hs-578T > 100 µM | SF-268 > 100 µM | MDA-MB-435 > 100 µM | 786-0 > 100 µM | NCI-H460 > 100 µM | HOP-92 > 100 µM | M14 > 100 µM | UACC-62 > 100 µM | NCI/ADR-RES > 100 µM | SK-OV-3 > 100 µM | SNB-19 > 100 µM | MCF7 > 100 µM
> 100 µM: HCT-15

O=C(O)c1ccc(OCc2nc3cc(C(F)(F)F)ccc3nc2-c2ccccc2)cc1
39.1 µM: HCT-15
inactive: U-251 44.2 µM | OVCAR-5 > 100 µM | MDA-MB-231 56.4 µM | SK-MEL-2 37.9 µM | Hs-578T 43.5 µM | SF-268 41.8 µM | MDA-MB-435 55.2 µM | 786-0 98.4 µM | NCI-H460 24.7 µM | HOP-92 29 µM | M14 80.4 µM | UACC-62 37.6 µM | NCI/ADR-RES 44.6 µM | HCC 2998 41.2 µM | SNB-19 73.8 µM | MCF7 45 µM

CC1(C)C2CCC1(C)C(N/C(=C(/C(Cl)=C(Cl)Cl)[N+](=O)[O-])n1nnc3ccccc31)C2 (stereo unspecified)
inactive: U-251 19.2 µM | Malme-3M 19.3 µM | OVCAR-5 29.2 µM | MDA-MB-231 22.5 µM | SK-MEL-2 22.9 µM | Hs-578T 17.3 µM | SF-268 17.6 µM | MDA-MB-435 21.4 µM | 786-0 41.1 µM | NCI-H460 37.2 µM | M14 37.7 µM | UACC-62 20 µM | NCI/ADR-RES 27.5 µM | HCC 2998 40.6 µM | SK-OV-3 40 µM | SNB-19 25.1 µM | MCF7 32.4 µM
27.7 µM: HCT-15

CN1C(=O)CC2CCC(=O)N2c2cccnc21 (stereo unspecified)
> 100 µM: HCT-15
inactive: U-251 > 100 µM | Malme-3M > 100 µM | MDA-MB-231 > 100 µM | SK-MEL-2 > 100 µM | Hs-578T > 100 µM | SF-268 > 100 µM | MDA-MB-435 > 100 µM | 786-0 > 100 µM | NCI-H460 > 100 µM | M14 > 100 µM | UACC-62 75.5 µM | NCI/ADR-RES > 100 µM | HCC 2998 > 100 µM | SNB-19 > 100 µM | MCF7 > 100 µM

O=P(O)(O)C(NCC(O)CN1CCOCC1)P(=O)(O)O (stereo unspecified)
inactive: U-251 > 100 µM | Malme-3M > 100 µM | OVCAR-5 > 100 µM | MDA-MB-231 > 100 µM | MOLT-4 > 100 µM | Hs-578T 10.2 µM | SF-268 > 100 µM | MDA-MB-435 > 100 µM | 786-0 > 100 µM | NCI-H460 > 100 µM | HOP-92 > 100 µM | M14 > 100 µM | UACC-62 > 100 µM | NCI/ADR-RES > 100 µM | HCC 2998 > 100 µM | SK-OV-3 > 100 µM | SNB-19 > 100 µM | MCF7 > 100 µM
> 100 µM: HCT-15

Cc1cc(OCc2nnc3n2N=C(c2cc(F)c(Cl)cc2Cl)/C(=C/c2ccc(Cl)cc2)S3)ccc1Cl
19.7 µM: HCT-15
active: MOLT-4 0.337 µM
inactive: U-251 18.3 µM | OVCAR-5 24.1 µM | MDA-MB-231 29.7 µM | SK-MEL-2 29 µM | Hs-578T 15.2 µM | SF-268 22.8 µM | MDA-MB-435 24.2 µM | 786-0 28.1 µM | NCI-H460 25.9 µM | HOP-92 18.1 µM | M14 25 µM | NCI/ADR-RES 33.2 µM | HCC 2998 19.6 µM | SK-OV-3 50.9 µM | MCF7 23.3 µM

S=C(Nc1ccc(/N=N/c2ccccc2)cc1)SCc1ccccc1
15.1 µM: HCT-15
inactive: U-251 16.2 µM | Malme-3M 11 µM | MDA-MB-231 14.7 µM | SK-MEL-2 21.4 µM | MOLT-4 12.1 µM | Hs-578T 22.2 µM | SF-268 17 µM | MDA-MB-435 16.2 µM | 786-0 17.8 µM | NCI-H460 20.2 µM | HOP-92 13.4 µM | M14 17.3 µM | UACC-62 17.8 µM | NCI/ADR-RES 17.8 µM | SK-OV-3 38.8 µM | SNB-19 18.5 µM | MCF7 23.3 µM

CCCCC1=C(C(=O)N2CCOCC2)C2(OCCO2)C1Cl (stereo unspecified)
26.9 µM: HCT-15
inactive: U-251 35.8 µM | Malme-3M 33.6 µM | OVCAR-5 19.4 µM | MDA-MB-231 64 µM | SK-MEL-2 19.8 µM | MOLT-4 > 100 µM | Hs-578T 30.1 µM | SF-268 40.8 µM | MDA-MB-435 21.7 µM | 786-0 36.4 µM | HOP-92 50.2 µM | M14 16.9 µM | UACC-62 31.6 µM | NCI/ADR-RES 45.9 µM | SK-OV-3 26 µM | SNB-19 32.3 µM | MCF7 20 µM

C=CO/N=[N+](\[O-])N(CC)CC
> 100 µM: HCT-15
inactive: U-251 > 100 µM | Malme-3M > 100 µM | OVCAR-5 > 100 µM | MDA-MB-231 > 100 µM | MOLT-4 > 100 µM | Hs-578T > 100 µM | SF-268 > 100 µM | MDA-MB-435 > 100 µM | 786-0 > 100 µM | NCI-H460 > 100 µM | HOP-92 > 100 µM | M14 > 100 µM | UACC-62 > 100 µM | NCI/ADR-RES > 100 µM | HCC 2998 > 100 µM | SK-OV-3 > 100 µM | SNB-19 > 100 µM | MCF7 > 100 µM

OCCCNCc1ccccn1
> 100 µM: HCT-15
inactive: U-251 > 100 µM | Malme-3M > 100 µM | OVCAR-5 > 100 µM | MDA-MB-231 > 100 µM | SK-MEL-2 > 100 µM | MOLT-4 > 100 µM | Hs-578T > 100 µM | SF-268 > 100 µM | MDA-MB-435 > 100 µM | 786-0 > 100 µM | NCI-H460 > 100 µM | HOP-92 > 100 µM | M14 > 100 µM | UACC-62 > 100 µM | NCI/ADR-RES > 100 µM | SK-OV-3 > 100 µM | SNB-19 > 100 µM | MCF7 > 100 µM

COC(=O)C1CCC(=O)N1CN(C(C)=O)c1ccccc1 (stereo unspecified)
inactive: U-251 > 100 µM | Malme-3M > 100 µM | OVCAR-5 > 100 µM | MDA-MB-231 > 100 µM | SK-MEL-2 > 100 µM | MOLT-4 > 100 µM | Hs-578T > 100 µM | SF-268 > 100 µM | MDA-MB-435 > 100 µM | 786-0 > 100 µM | NCI-H460 > 100 µM | HOP-92 > 100 µM | M14 > 100 µM | UACC-62 > 100 µM | NCI/ADR-RES > 100 µM | SK-OV-3 > 100 µM | SNB-19 > 100 µM | MCF7 > 100 µM
> 100 µM: HCT-15

— ChEMBL document CHEMBL1201862, “PubChem BioAssay data set” (2004)
